From patent publication US12624004B2 (Fudan University, priority 2019, dated 2026)
Like-named read-outs stand apart in the source and are kept apart here.

What was measured:
μ opioid receptor = molecular target: T1, μ opioid receptor (Homo sapiens, UniProt P35372); test: Competition binding assay on membranes of CHO cells expressing μ opioid receptor, [3H]-labeled ligand; settings: for Ki: read-out: μOR Ki; for inhibition at 1 µM: 0.5 h, 1 μM concentration of compound, read-out: μOR Combination rate (%)
T1 construct: expressed in transfected cells; host or cells: CHO cells (membranes)
Outline: (§1)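 CHO membranes (20–30 μg protein) incubated with [3H]-labeled ligand at 1–2 nM and test compounds, 30 min at 30° C; nonspecific binding with 1 μM corresponding ligand. Filtered on GF/C, washed with 50 mM Tris-HCl pH 7.4, scintillation-counted. IC50 converted to Ki by Ki=IC50/(1+[L]/Kd).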

δ opioid receptor = molecular target: T2, δ opioid receptor (Homo sapiens, UniProt P41143); test: Competition binding assay on membranes of CHO cells expressing δ opioid receptor, [3H]-labeled ligand; settings: for inhibition at 1 µM: 0.5 h, 1 μM concentration of compound, read-out: δOR Combination rate (%); for Ki: read-out: δOR Ki
T2 construct: expressed in transfected cells; host or cells: CHO cells (membranes)
Outline: as §1

κ opioid receptor = molecular target: T3, κ opioid receptor (Homo sapiens, UniProt P41145); test: Competition binding assay on membranes of CHO cells expressing κ opioid receptor, [3H]-labeled ligand; settings: for inhibition at 1 µM: 0.5 h, 1 μM concentration of compound, read-out: κOR Combination rate (%); for Ki: read-out: κOR Ki
T3 construct: expressed in transfected cells; host or cells: CHO cells (membranes)
Outline: as §1

Female mice = test: In vivo hot plate method analgesia test; settings: intraperitoneal; for Maximum percentage effective analgesia (% MPE): Table 5-2, hot plate 55° C.; for ED50: Mus musculus, ip
Procedure: Female mice weighing about 20 g were placed on a hot plate apparatus preheated to 55° C., and the latency of the hindfoot response of the mice was used as the pain threshold indicator. Animals were screened before the experiment, and those with response latency less than 5 s or more than 30 s were excluded. To prevent foot scalding, the maximum observation time was set at 60 s. The basal pain threshold was the average of two measurements, with a 5-min interval between measurements. pain thresholds were measured at 15 m, 30 m, 60 m and 120 m after intraperitoneal injection in each group of mice. The percentage effective analgesia (% MPE) was calculated according to the following formula: percentage effective analgesia (% MPE) (post-dose latency−pre-dose latency)/(60−pre-dose latency)×100%. ED50 values were calculated based on the effective percentage of analgesia using the software Graphpad prism 5.0 software.
(§2) Female mice weighing about 20 g were placed on a hot plate apparatus preheated to 55° C., and the latency of the hindfoot response of the mice was used as the pain threshold indicator. Animals were selected before the experiment, and those with response latency less than 5 s or greater than 30 s were excluded. To prevent foot scalding, the maximum observation time was set at 60 s. The basal pain threshold was the average of two measurements, with a 5-min interval between measurements. pain thresholds were measured at 15 min, 30 min, 60 min and 120 min after intraperitoneal administration in each group of mice. The percentage of analgesic effectiveness (% MPE) was calculated according to the following equation. Percentage of effective analgesia (% MPE)_(Pre-dose incubation period−Incubation period after drug administration)/(60-Pre-dose incubation period)×100%. ED50 values were calculated based on the effective percentage of analgesia using GraphPad prism 5.0 software.
as §2, with “were screened” for “were selected”, “measurements. Pain” for “measurements. pain”, “following formula.” for “following equation. Percentage of effective analgesia (% MPE)_(Pre-dose incubation period−Incubation period after drug administration)/(60-Pre-dose incubation period)×100%. ED50 values were calculated based on the effective percentage of analgesia using GraphPad prism 5.0 software.”
ED50 values were calculated based on the effective percentage of analgesia using Graphpad Prism 5.0.
Female mice weighing about 20 g were placed on a hot plate apparatus preheated to 55° C., and the latency of the hindfoot response of the mice was used as the pain threshold indicator. Animals were screened before the experiment, and those with response latency less than 5 s or more than 30 s were excluded. To prevent foot scalding, the maximum observation time was set at 60 s. The basal pain threshold was the average of two measurements, with a 5-min interval between measurements. pain thresholds were measured at 15 min, 30 min, 60 min and 120 min after intraperitoneal administration in each group of mice. The analgesic effective percentage (% MPE) was calculated according to the following formula: analgesic effective percentage (% MPE)=(latency after drug administration−latency before drug administration)/(60−latency before drug administration)×100%. ED50 values were calculated based on the effective percentage of analgesia using the software Graphpad prism 5.0.
Female mice weighing about 20 g were placed on a hot plate apparatus preheated to 55° C. and the latency of the hindfoot response was used as an indicator of pain threshold. […]

Compound | Ki (μ opioid receptor; Table 5-1) [µM] | Maximum percentage effective analgesia (% MPE) (Female mice; 10 mg/kg dose) [%] | Ki (δ opioid receptor; Table 5-1) [µM] | Ki (κ opioid receptor; Table 5-1) [µM] | also measured
COc1cccc(C2(O)CCN(C(=O)Cc3cccs3)CC2CN(C)C)c1.Cl (stereo not drawn) [FWBE8, 1-(3-((Dimethylamino)methyl)-4-hydroxy-4-(3-methoxyphenyl)piperidin-1-yl)-2-(thiophen-2-yl)ethyl-1-one hydrochloride] | 0.0348 ± 0.0011 | 93.0 | – | – | inhibition at 1 µM (δ opioid receptor; Table 5-1): 18.7 ± 1.9%; inhibition at 1 µM (κ opioid receptor; Table 5-1): 32.5 ± 4.4%
COc1cccc(C2(O)CCN(C(=O)Cc3cccc(Cl)c3)CC2CN(C)C)c1.Cl (stereo not drawn) [FWBE9, 2-(3-Chlorophenyl)-1-(3-((dimethylamino)methyl)-4-hydroxy-4-(3-methoxyphenyl)piperidin-1-yl)ethyl-1-one hydrochloride] | 0.0242 | 86.38 | 1.64 ± 0.148 | 1.01 ± 0.0601 | –
COc1cccc(C2(O)CCN(C(=O)Cc3cccc(F)c3)CC2CN(C)C)c1.Cl (stereo not drawn) [FWBE12, 1-(3-((Dimethylamino)methyl)-4-hydroxy-4-(3-methoxyphenyl)piperidin-1-yl)-2-(3-fluorophenyl)ethyl-1-one hydrochloride] | 0.0823 ± 0.0038 | 88.38 | 2.39 ± 0.046 | 2.36 ± 0.0955 | –
COc1cccc(C2(O)CCN(C(=O)Cn3ccc4ccccc43)CC2CN(C)C)c1.Cl (stereo not drawn) [FWBE14, 1-(3-((Dimethylamino)methyl)-4-hydroxy-4-(3-methoxyphenyl)piperidin-1-yl)-2-(1H-indol-1-yl)ethyl-1-one hydrochloride] | 0.0729 ± 0.0001 | 54.23 | 1.18 ± 0.22 | 4.05 ± 0.382 | –
COc1cccc(C2(O)CCN(C(=O)Cc3ccc4ccccc4c3)CC2CN(C)C)c1.Cl (stereo not drawn) [FWBE15, 1-(3-((Dimethylamino)methyl)-4-hydroxy-4-(3-methoxyphenyl)piperidin-1-yl)-2-(naphthalen-2-yl)ethyl-1-one hydrochloride] | 0.0816 ± 0.001 | 0 | > 10 | 2.651 ± 0.0035 | –
COc1cccc(C2(O)CCN(C(=O)Cc3cccc4ccccc34)CC2CN(C)C)c1.Cl (stereo not drawn) [FWBE16, 1-(3-((Dimethylamino)methyl)-4-hydroxy-4-(3-methoxyphenyl)piperidin-1-yl)-2-(naphthalen-1-yl)ethyl-1-one hydrochloride] | 0.353 ± 0.0045 | 78.72 | 2.16 ± 0.072 | 1.7 ± 0.379 | –
COc1cccc(C2(O)CCN(C(=O)Cc3ccc(Cl)c(Cl)c3)CC2CN(C)C)c1.Cl (stereo not drawn) [FWBE17, 2-(3,4-Dichlorophenyl)-1-(3-((dimethylamino)methyl)-4-hydroxy-4-(3-methoxyphenyl)piperidin-1-yl)ethyl-1-one hydrochloride] | 0.0692 ± 0.0004 | 70.66 | 0.805 ± 0.173 | 0.288 ± 0.0128 | –
COc1cccc(C2(O)CCN(C(=O)Cc3cc(F)c(F)cc3F)CC2CN(C)C)c1.Cl (stereo not drawn) [FWBE18, 1-(3-((Dimethylamino)methyl)-4-hydroxy-4-(3-methoxyphenyl)piperidin-1-yl)-2-(2,4,5-trifluorophenyl)ethyl-1-one hydrochloride] | – | – | – | – | inhibition at 1 µM (μ opioid receptor; Table 5-1): 29.7 ± 1.9%; inhibition at 1 µM (δ opioid receptor; Table 5-1): 0%; inhibition at 1 µM (κ opioid receptor; Table 5-1): 61.6 ± 0.7%; ED50 (Female mice; Table 5-2, hot plate): 1.11 mg/kg
COc1cccc(C2(O)CCN(C(=O)Cc3ccc(Cl)cc3)CC2CN(C)C)c1.Cl (stereo not drawn) [FWBE19, 2-(4-Chlorophenyl)-1-(3-((dimethylamino)methyl)-4-hydroxy-4-(3-methoxyphenyl)piperidin-1-yl)ethyl-1-one hydrochloride] | – | 73.98 | – | – | inhibition at 1 µM (μ opioid receptor; Table 5-1): 25.2 ± 5.2%; inhibition at 1 µM (δ opioid receptor; Table 5-1): 0%; inhibition at 1 µM (κ opioid receptor; Table 5-1): 39.4 ± 4.5%
COc1cccc(C2(O)CCN(C(=O)Cc3cccc(C#N)c3)CC2CN(C)C)c1.Cl (stereo not drawn) [FWBE21, 3-(2-(3-((Dimethylamino)methyl)-4-hydroxy-4-(3-methoxyphenyl)piperidin-1-yl)-2-oxoethyl) benzonitrile hydrochloride] | – | 67.09 | – | – | inhibition at 1 µM (μ opioid receptor; Table 5-1): 28.9 ± 17%; inhibition at 1 µM (δ opioid receptor; Table 5-1): 25.4 ± 4.4%; inhibition at 1 µM (κ opioid receptor; Table 5-1): 42.3 ± 3.3%
COc1cccc(C2(O)CCN(C(=O)Cc3cccc([N+](=O)[O-])c3)CC2CN(C)C)c1.Cl (stereo not drawn) [FWBE22, 1-(3-((Dimethylamino)methyl)-4-hydroxy-4-(3-methoxyphenyl)piperidin-1-yl)-2-(3-nitrophenyl) ethyl-1-one hydrochloride] | 0.0856 ± 0.0154 | 72.88 | > 10 | 1.99 ± 0.145 | –
COc1cccc(C2(O)CCN(C(=O)C(C)(C)c3ccccc3)CC2CN(C)C)c1.Cl (stereo not drawn) [FWBE23, 1-(3-((Dimethylamino)methyl)-4-hydroxy-4-(3-methoxyphenyl)piperidin-1-yl)-2-methyl-2-phenylpropan-1-one hydrochloride] | 0.0526 ± 0.00383 | 33.72 | 0.688 ± 0.54 | 0.0444 ± 0.00096 | –
COc1cccc(C2(O)CCN(C(=O)C3(c4ccccc4)CC3)CC2CN(C)C)c1.Cl (stereo not drawn) [FWBE24, (3-((Dimethylamino)methyl)-4-hydroxy-4-(3-methoxyphenyl)piperidin-1-yl)(1-phenylcyclopropyl)methanone hydrochloride] | 0.06715 ± 8e-05 | 29.85 | 0.848 ± 0.529 | 0.0339 ± 0.00092 | –
COc1cccc(C2(O)CCN(C(=O)C3(c4ccccc4)CCC3)CC2CN(C)C)c1.Cl (stereo not drawn) [FWBE25, (3-((Dimethylamino)methyl)-4-hydroxy-4-(3-methoxyphenyl)piperidin-1-yl)(1-phenylcyclobutyl) methanone hydrochloride] | 0.0809 ± 0.00567 | 5.03 | 0.717 ± 0.253 | 0.205 ± 0.0409 | –
COc1cccc(C2(O)CCN(C(=O)C3(c4ccccc4)CCCC3)CC2CN(C)C)c1.Cl (stereo not drawn) [FWBE26, (3-((Dimethylamino)methyl)-4-hydroxy-4-(3-methoxyphenyl)piperidin-1-yl)(1-phenylcyclopentyl) methanone hydrochloride] | 0.07372 ± 0.00032 | 52.96 | 1.64 ± 1.16 | 0.0326 ± 0.00435 | –
COc1cccc(C2(O)CCN(C(=O)C3(c4ccccc4)CCCCC3)CC2CN(C)C)c1.Cl (stereo not drawn) [FWBE27, (3-((Dimethylamino)methyl)-4-hydroxy-4-(3-methoxyphenyl)piperidin-1-yl)(1-phenylcyclohexyl) methanone hydrochloride] | 0.0516 ± 0.00224 | 61.21 | – | 0.0307 ± 0.00096 | inhibition at 1 µM (δ opioid receptor; Table 5-1): 93.6 ± 1.08%
COc1cccc(C2(O)CCN(C(=O)Nc3ccccc3)CC2CN(C)C)c1.Cl (stereo not drawn) [FWBF1, 3-((Dimethylamino)methyl)-4-hydroxy-4-(3-methoxyphenyl)-N-phenylpiperidine-1-carboxamide hydrochloride] | – | – | – | – | Ki (μ opioid receptor; Table 3-1): 0.0073 ± 0.0005 µM; Ki (δ opioid receptor; Table 3-1): 0.849 ± 0.0966 µM; Ki (κ opioid receptor; Table 3-1): 0.0491 ± 0.0069 µM; ED50 (Female mice; Table 3-2, hot plate): 2.75 mg/kg
COc1cccc(C2(O)CCN(C(=O)Nc3cccc(Cl)c3)CC2CN(C)C)c1.Cl (stereo not drawn) [FWBF2, N-(3-Chlorophenyl)-3-((dimethylamino)methyl)-4-hydroxy-4-(3-methoxyphenyl)piperidine-1-carboxamide hydrochloride] | – | – | – | – | Ki (μ opioid receptor; Table 3-1): 0.0141 ± 0.0027 µM; Ki (δ opioid receptor; Table 3-1): 0.537 ± 0.0693 µM; Ki (κ opioid receptor; Table 3-1): 0.719 ± 0.197 µM; % MPE @ 10 mg/kg (Female mice; Table 3-2, hot plate 55° C., 10 mg/kg dose): 21.27%
